# Numbered stars: 1 amine (or outer) side, 2 acyl side, 3 side chain; on linkers, the order of the positions; unused ones are H or OH. Peptide text beside a SMILES is read from it. * marks the point of attachment. X3 = O=C(O)[C@@H]1CCCN1C(=O)NC[C@H](CO)N*; X5 = C[C@@H](O)[C@H](N)CN*; CO = O=C([*:1])[*:2]
# Tests used:
# mouse GLP-1 receptor = target: T1, mouse GLP-1 receptor (Mus musculus, UniProt O35659); experiment: GLP-1 functional assay: agonist activity by cAMP production (HTRF) in βTC6 cells; type: cell-based
# T1 construct: mouse GLP-1 receptor endogenously expressed in βTC6 cells; endogenous in cells; host or cells: βTC6 cells
# T1 sequence (O35659 22-463): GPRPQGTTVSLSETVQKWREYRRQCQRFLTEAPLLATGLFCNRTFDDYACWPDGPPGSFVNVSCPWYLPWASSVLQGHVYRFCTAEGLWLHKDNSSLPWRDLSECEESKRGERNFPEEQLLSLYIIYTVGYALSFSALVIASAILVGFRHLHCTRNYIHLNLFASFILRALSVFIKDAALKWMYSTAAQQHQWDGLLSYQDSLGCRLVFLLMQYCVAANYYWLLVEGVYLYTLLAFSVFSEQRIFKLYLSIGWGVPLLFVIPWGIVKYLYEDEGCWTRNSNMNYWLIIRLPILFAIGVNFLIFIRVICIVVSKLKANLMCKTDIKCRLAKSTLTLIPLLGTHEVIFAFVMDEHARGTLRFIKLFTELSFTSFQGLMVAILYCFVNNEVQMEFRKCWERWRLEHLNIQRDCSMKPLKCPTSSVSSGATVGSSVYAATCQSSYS
# Experimental: For stimulated control measurement, separate assay wells contain 10 nM GLP-1(7-37) were utilized.
# Following incubation, the cells were lysed and the fluorescence acceptor (D2-labeled cAMP) and fluorescence donor (anti-cAMP antibody labeled with europium cryptate) were added. […] The results are expressed as a percent of the control response to 10 nM GLP-1(7-37). The standard reference agonist is GLP-1(7-37), which was tested in each experiment at several concentrations to generate a concentration-response curve from which its EC50 value was calculated.
# (§1) HTRF (Homogeneous Time-Resolved Fluorescence) principle. The HTRF technology is based on time resolved fluorescence energy transfer (TR-FRET), which occurs between long-lived fluorophore Europium or Terbium Cryptates, and EuK or Tb respectively, as a donor and the allophycocyanin XL665, d2 or Red as acceptor. Many compounds and proteins present in biological fluids or serum are naturally fluorescent, and the use of conventional, prompt fluorescence leads to serious limitations in assay sensitivity. The use of long-lived fluorophore combined with time-resolved detection (a delay between excitation and emission detection) minimizes prompt fluorescence interference.
# chymotrypsin = experiment: Enzymatic degradation by chymotrypsin; type: in vitro ADME; details: compared to native peptide GLP-1 (SEQ ID NO: 1)
# Experimental: Enzymatic Degradation—Chymotrypsin and Trypsin. Stock solutions of the compounds were prepared at a concentration of 400 μM in a solution of 50 mM HEPES buffer, 50 mM NaCl, 0.05% Tween-80, pH 8.0. Stock solution of the chymotrypsin or trypsin was prepared at a concentration of 250 μg/mL in water. Stability of compounds to chymotrypsin was assessed by conducting a protease reaction in a 96-well plates at room temperature. Each well received 10 μL of HEPES buffer, 38 μL of the solution of compound to be assayed (final concentration 304 μmol/L), and 2 μL of the enzyme solution (final concentration 10 μg/mL) for a total volume of 50 μL. Each compound was also incubated in the absence of the enzyme (12 μL of HEPES buffer and 38 μL of the compound).
# (§2) At the indicated time (5, 10, 15, 30 and 60 minute(s)) a 10 μL aliquot was removed from each experimental reaction and pipet into 100 μL of 1% TFA solution to quench the reaction (t=0 minutes was determined using the reaction without enzyme). A portion of the quenched reaction solution was analyzed by HPLC. The time course of peptide degradation was determined by integrating the area of each peak in a series of HPLC traces. Another portion of the quenched reaction was analyzed by LC-MS for identification of each peptide fragment.
# [1] = target: T2, Carboxypeptidase A (EC 3.4.17.1) (Bos taurus, UniProt P00730); experiment: Enzymatic degradation by carboxypeptidase A; type: in vitro ADME, bovine; details: same results = more stable than the native peptides
# T2 construct: from bovine pancreas (Fluka), milky suspension; purchased Fluka; host or cells: bovine pancreas
# T2 sequence (P00730 111-419): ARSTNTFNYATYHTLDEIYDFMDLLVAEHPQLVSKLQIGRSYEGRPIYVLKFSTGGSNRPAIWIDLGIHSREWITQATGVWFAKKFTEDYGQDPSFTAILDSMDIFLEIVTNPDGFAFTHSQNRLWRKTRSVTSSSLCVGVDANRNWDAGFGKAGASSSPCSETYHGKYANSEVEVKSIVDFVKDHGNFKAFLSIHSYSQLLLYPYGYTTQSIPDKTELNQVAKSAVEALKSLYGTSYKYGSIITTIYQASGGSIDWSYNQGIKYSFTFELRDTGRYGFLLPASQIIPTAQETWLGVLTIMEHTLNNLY
# Experimental: Enzymatic Degradation—Carboxypeptidase A. Carboxypeptidase A (EC 3.4.17.1) from bovine pancreas (Fluka), milky suspension, stock solution in PBS buffer (pH 7.5, 0.01 M). For each degradation experiment, stock solutions of the peptidic substrate and the enzyme were made using phosphate-buffered saline (PBS) buffer solution. The enzyme concentrations of the stock solutions were selected such that the standard substrates were totally degraded after a maximum of 15 min (ratio 2[enzyme]:100[substrate]). PBS buffer solution (10 mM sodium phosphate, 0.14 M NaCl) was prepared as follows: Solution A (4.75 mL of 0.2 M NaH2PO4.H2O), solution B (20.25 mL of 0.2 M Na2HPO4.H2O), NaCl (4.5 g) and H2O (25 mL) were stirred for 15 min at room temperature and diluted tenfold with H2O. The pH was adjusted either with NaOH (1 M) or with HCl (1 M) prior to use. A solution of the substrate in PBS buffer (pH 7.5, 0.01 M) and a solution of the required amount of enzyme, were mixed and incubated at 25° C. for 4 hours. Degradation was stopped with concentrated AcOH, and buffer solution was added so that the total volume reached 150 μL.
# The resulting mixture was analyzed by reversed-phase HPLC. A mixture of CH3CN/H2O (0.1% TFA) was used as eluent. Gradients were 10% CH3CN to 100% CH3CN in 10 minutes. The flow rate, for all separations, was 1 mL·min^−1.
# MDM2 = target: T3, MDM2 (Homo sapiens, UniProt Q00987); experiment: MDM2/p53 interaction HTRF assay; type: biochemical
# T3 construct: GST-Flag-Mdm2 (AA1-188; GI:4505136)
# T3 sequence (Q00987 1-188): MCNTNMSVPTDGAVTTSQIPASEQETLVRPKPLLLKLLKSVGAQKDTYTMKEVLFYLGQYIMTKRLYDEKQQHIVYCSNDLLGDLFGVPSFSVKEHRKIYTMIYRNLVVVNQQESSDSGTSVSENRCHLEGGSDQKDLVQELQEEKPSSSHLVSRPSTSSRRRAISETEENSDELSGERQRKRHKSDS
# Experimental: (§3) Functional Assay to Examine Bioactivity of MDM2 and MDMX Antagonists. The compounds were received dissolved in 100% DMSO at a final concentration of 10 mM and frozen. After complete defrosting and sonication, all compounds were diluted in 100% DMSO at both 0.4 mM, 0.04 and 0.004 mM, and distributed into two 96-well compounds daughter plates (Table 2).
# (§4) Each compound was evaluated in duplicate on both (MDM2 or MDMX)/p53 interaction and on a positive TR-FRET control protein in a 384-well reaction plate. […] The reference compound Nutlin-3 is integrated in the compound daughter plate and was used under the same conditions.
# as §1, with “interference. […]” for “interference.”
# MDMX = target: T4, MDMX (Homo sapiens, UniProt O15151); experiment: MDMX/p53 interaction HTRF assay; type: biochemical
# T4 construct: GI:88702790)
# T4 sequence (O15151 1-174): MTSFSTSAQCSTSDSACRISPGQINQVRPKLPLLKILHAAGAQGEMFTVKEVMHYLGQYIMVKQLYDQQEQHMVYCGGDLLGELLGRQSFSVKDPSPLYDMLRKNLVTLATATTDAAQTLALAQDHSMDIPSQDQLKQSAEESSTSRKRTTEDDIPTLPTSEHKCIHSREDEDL
# Experimental: as §3, §4
# as §1, with “interference. […]” for “interference.”
# trypsin = experiment: Enzymatic degradation by trypsin; type: in vitro ADME; details: compared to native peptide GLP-1 (seq. 1)
# Experimental: Enzymatic Degradation—Chymotrypsin and Trypsin. Stock solutions of the compounds were prepared at a concentration of 400 μM in a solution of 50 mM HEPES buffer, 50 mM NaCl, 0.05% Tween-80, pH 8.0. […] Stability of compounds to chymotrypsin was assessed by conducting a protease reaction in a 96-well plates at room temperature. […] Each compound was also incubated in the absence of the enzyme (12 μL of HEPES buffer and 38 μL of the compound).
# as §2
smiles,measurement,setting,value
CC[C@H](C)[C@H](NC(=O)[C@H](Cc1ccccc1)NC(=O)[C@H](CCC(=O)O)NC(=O)[C@H](CCCCN)NC(=O)[C@H](C)NC(=O)[C@H](C)NC(=O)[C@H](CCC(N)=O)NC(=O)CNC(=O)[C@H](CCC(=O)O)NC(=O)[C@H](CC(C)C)NC(=O)[C@H](Cc1ccc(O)cc1)NC(=O)[C@H](CO)NC(=O)[C@H](CO)NC(=O)[C@@H](NC(=O)[C@H](CC(=O)O)NC(=O)[C@H](CO)NC(=O)[C@@H](NC(=O)[C@H](Cc1ccccc1)NC(=O)[C@@H](NC(=O)CNC(=O)[C@H](CCC(=O)O)NC(=O)[C@H](C)NC(=O)[C@@H](N)Cc1c[nH]cn1)[C@@H](C)O)[C@@H](C)O)C(C)C)C(=O)N[C@@H](C)C(=O)N[C@H](CNC(=O)N[C@@H](CC(C)C)C(=O)N[C@H](C(=O)N[C@@H](CCCCN)C(=O)NCC(=O)N[C@@H](CCCNC(=N)N)C(=O)NCC(=O)O)C(C)C)Cc1c[nH]c2ccccc12 [Compound 4],EC50,mouse GLP-1 receptor,0.26 nM
same,half-life in the chymotrypsin degradation test compared to native peptide,chymotrypsin,longer half-life
same,stability with carboxipeptidase A compared to native peptides,[1],same results
CC(C)C[C@H](NC(=O)[C@H](C)NC(=O)[C@H](Cc1c[nH]c2ccccc12)NC(=O)[C@H](Cc1ccc(O)cc1)NC(=O)[C@H](CCC(=O)O)NC(=O)[C@H](C)NC(=O)[C@H](Cc1ccccc1)NC(=O)[C@H](CO)NC(=O)NC[C@@H](N)[C@@H](C)O)C(=O)N[C@@H](CC(C)C)C(=O)N[C@@H](CO)CNC(=O)N1CCC[C@H]1C(=O)O [Compound 23] ({X5-CO}-SFAEYWALL-X3; N-terminus and C-terminus assumed),EC50,MDM2,0.75 nM
same,EC50,MDMX,6.3 nM
CC[C@H](C)[C@H](NC(=O)[C@H](Cc1ccccc1)NC(=O)NC[C@H](CCC(=O)O)NC(=O)[C@H](CCCCN)NC(=O)[C@H](C)NC(=O)[C@H](C)NC(=O)[C@H](CCC(N)=O)NC(=O)CNC(=O)[C@H](CCC(=O)O)NC(=O)[C@H](CC(C)C)NC(=O)[C@H](Cc1ccc(O)cc1)NC(=O)[C@H](CO)NC(=O)[C@H](CO)NC(=O)[C@@H](NC(=O)[C@H](CC(=O)O)NC(=O)[C@H](CO)NC(=O)[C@@H](NC(=O)[C@H](Cc1ccccc1)NC(=O)[C@@H](NC(=O)CNC(=O)[C@H](CCC(=O)O)NC(=O)[C@H](C)NC(=O)[C@@H](N)Cc1c[nH]cn1)[C@@H](C)O)[C@@H](C)O)C(C)C)C(=O)N[C@@H](C)C(=O)N[C@@H](Cc1c[nH]c2ccccc12)C(=O)N[C@@H](CC(C)C)C(=O)N[C@H](C(=O)N[C@@H](CCCCN)CNC(=O)NCC(=O)N[C@@H](CCCNC(=N)N)CNC(=O)NCC(=O)O)C(C)C [Compound 11],half-life in the trypsin degradation test compared to native peptide,trypsin,longer half-life
